ChEMBL document CHEMBL1143508, “Design, synthesis, and structure-activity relationships of tetrahydroquinoline-based farnesyltransferase inhibitors” (Bioorg Med Chem Lett, 2005)

What was measured:
[1] = biological target: T1, Protein farnesyltransferase (Rattus norvegicus) (UniProt Q04631+Q02293); experiment: Percentage cellular reversion in H-ras transformed Rat-1 cells at 1 uM; type: functional, cell-based
[2] = biological target: T1, Protein farnesyltransferase (Rattus norvegicus); experiment: Percentage cellular reversion of H-ras transformed Rat-1 cells at 100 nM; type: functional, cell-based
[3] = biological target: Protein farnesyltransferase (Homo sapiens, UniProt P49354+P49356); experiment: Inhibition of human farnesyltransferase; type: protein-complex assay
[4] = biological target: Protein farnesyltransferase (Rattus norvegicus, UniProt Q02293+Q04631); experiment: Inhibition of cellular reversion in H-ras transformed Rat-1 cells; type: functional, cell-based
[5] = biological target: T1, Protein farnesyltransferase (Rattus norvegicus); experiment: Percentage cellular reversion in H-ras transformed Rat-1 cells at 10 uM; type: functional, cell-based

Row | Structure (SMILES) | Cellular reversion [1] [%] | Cellular reversion [2] [%] | IC50 [3] [nM] | IC50 [4] [nM] | Cellular reversion [5] [%]
1 | C=C(C)CN(C1Cc2cc(C#N)ccc2N(Cc2cncn2C)C1)S(=O)(=O)c1cn(C)cn1 (stereo not given) |  | 80 | 0.3 | 50 | 
2 | Cn1cnc(S(=O)(=O)N(CC(=O)OC(C)(C)C)C2Cc3cc(C#N)ccc3N(Cc3cncn3C)C2)c1 (stereo not given) |  | 90 | 0.6 | 30 | 
3 | C=C(C)CN(C1Cc2cc(C#N)ccc2N(Cc2cncn2C)C1)S(C)(=O)=O (stereo not given) |  | 90 | 0.8 | 8 | 
4 | Cn1cncc1CN1CC(N(Cc2ccsc2)S(=O)(=O)c2cccnc2)Cc2cc(C#N)ccc21 (stereo not given) |  | 85 | 0.9 |  | 
5 | CN(C1Cc2cc(C#N)ccc2N(Cc2cncn2C)C1)S(=O)(=O)c1cccnc1 (stereo not given) | 10 | 0 | 17 |  | 
6 | CN(C1Cc2cc(C#N)ccc2N(Cc2cncn2C)C1)S(=O)(=O)c1ccccn1 (stereo not given) | 85 | 0 | 3.1 |  | 
7 | Cn1cncc1CN1CC(N(Cc2ccccc2)S(=O)(=O)c2ccccn2)Cc2cc(C#N)ccc21 (stereo not given) |  | 90 | 2.6 | < 20 | 
8 | Cn1cnc(S(=O)(=O)N(Cc2ccsc2)C2Cc3cc(C#N)ccc3N(Cc3cncn3C)C2)c1 (stereo not given) |  | 65 |  |  | 
9 | Cn1cncc1CN1CC(N(CCc2ccccc2)S(=O)(=O)c2ccccc2)Cc2cc(C#N)ccc21 (stereo not given) |  | 0 | > 5000 |  | 
10 | Cn1cc(S(=O)(=O)N(Cc2ccccc2)C2Cc3cc(C#N)ccc3N(Cc3cncn3C)C2)cn1 (stereo not given) |  | 75 | 4.6 |  | 
11 | Cn1cncc1CN1CC(N(CC(=O)OC(C)(C)C)S(=O)(=O)c2ccccn2)Cc2cc(C#N)ccc21 (stereo not given) |  | 85 |  | 10 | 
12 | C=C(C)CN(C1Cc2cc(C#N)ccc2N(Cc2cncn2C)C1)S(=O)(=O)c1cccnc1 (stereo not given) |  | 70 | 1.2 | 100 | 
13 | Cn1cc(S(=O)(=O)N(Cc2ccsc2)C2Cc3cc(C#N)ccc3N(Cc3cncn3C)C2)cn1 (stereo not given) |  | 95 |  |  | 
14 | C=C(C)CN(C1Cc2cc(C#N)ccc2N(Cc2cncn2C)C1)S(=O)(=O)c1ccccn1 (stereo not given) |  | 85 | 0.9 | 60 | 
15 | Cn1cncc1CN1CC(N(CC(=O)OC(C)(C)C)S(=O)(=O)c2cccnc2)Cc2cc(C#N)ccc21 (stereo not given) |  | 30 | 3.9 | 225 | 
16 | CN(C1Cc2cc(C#N)ccc2N(Cc2cncn2C)C1)S(=O)(=O)c1cnn(C)c1 (stereo not given) | 25 | 0 | 7.6 |  | 
17 | Cn1cnc(S(=O)(=O)N(Cc2ccccc2)C2Cc3cc(C#N)ccc3N(Cc3cncn3C)C2)c1 (stereo not given) |  | 75 | 1.1 |  | 
18 | Cn1cncc1CN1CC(N(Cc2ccsc2)S(=O)(=O)c2ccccn2)Cc2cc(C#N)ccc21 (stereo not given) |  | 95 |  | 13 | 

Now from value to compound:

Row | Cellular reversion [1] [%] | Cellular reversion [2] [%] | IC50 [3] [nM] | IC50 [4] [nM] | Cellular reversion [5] [%] | Structure (SMILES)
19 | 85 | 0 | 2.8 |  |  | Cn1cncc1CN1CC(N(Cc2ccccc2)S(C)(=O)=O)Cc2cc(C#N)ccc21 (stereo not given)
20 | 90 | 0 | 48 |  |  | Cn1cncc1CN1CC(N(CC2CCCCC2)S(=O)(=O)c2ccccc2)Cc2cc(C#N)ccc21 (stereo not given)
21 |  | 80 | 2.8 |  |  | Cn1cncc1CN1C[C@H](N(Cc2ccsc2)S(=O)(=O)c2ccccc2)Cc2cc(C#N)ccc21
22 |  | 75 | 4 |  |  | Cn1cncc1CN1CC(N(CC(=O)OC(C)(C)C)S(=O)(=O)c2ccccc2)Cc2cc(C#N)ccc21 (stereo not given)
23 |  | 85 | 3 |  |  | Cn1cncc1CN1CC(N(Cc2ccccc2)S(=O)(=O)c2ccccc2)Cc2cc(C#N)ccc21 (stereo not given)
24 |  | 85 | 0.9 | 70 |  | Cn1cncc1CN1CC(N(Cc2ccccc2)S(=O)(=O)c2cccnc2)Cc2cc(C#N)ccc21 (stereo not given)
25 |  | 85 | 1.1 |  |  | Cn1cncc1CN1C[C@@H](N(Cc2ccsc2)S(=O)(=O)c2ccccc2)Cc2cc(C#N)ccc21
26 |  | 45 | 3.5 |  |  | CN(C1Cc2cc(C#N)ccc2N(Cc2cncn2C)C1)S(=O)(=O)c1ccccc1 (stereo not given)
27 |  | 90 | 2.5 |  |  | Cn1cncc1CN1CC(N(Cc2ccsc2)S(=O)(=O)c2ccccc2)Cc2cc(C#N)ccc21 (racemic)
28 |  | 95 | 0.9 |  |  | C=C(C)CN(C1Cc2cc(C#N)ccc2N(Cc2cncn2C)C1)S(=O)(=O)c1ccccc1 (stereo not given)
29 |  | 0 | 10 |  | 30 | Cn1cncc1CN1CC(NS(=O)(=O)c2ccccc2)Cc2cc(C#N)ccc21 (stereo not given)
